According to patent publication US5582814A, “1-(p-n-butylbenzyl) DTPA for magnetic resonance imaging” (Metasyn, Inc., priority 1994, dated 1996):

Experiments:
[1] = Relaxivity in rat liver cytosol; format: biochemical; conditions: 20 MHz, 37° C.; Gd(III) complexes in rat liver cytosol
Method: The relaxivity of the Gd(III) complexes in cytosol was measured at 37 ° C. using a Bruker 20MHz Minispec equipped with a variable temperature probe. The inversion-recovery pulse sequence with 10 data points was used for T1 measurements. 1/T1 relaxation rates of solutions with varying concentrations of the chelates (0.01-0.5 mM) were determined. The limiting slope of the 1/T1 vs concentration plot at low concentrations of the chelates in units of s^-1 mM^-1 was taken as the relaxivity (R1) of the chelate in cytosol.
Higher relaxivity values imply higher binding affinity to cytosolic proteins and/or greater relaxivity when bound.

[2] = 1/T1 relaxation rates of excised rat liver; format: in vivo, Sprague Dawley rat; conditions: 50 μmol/kg tail vein, 20 MHz, 37° C.
Method: Rats (approx. 3 per time period) were euthanized by cervical dislocation (while anesthetized by CO2) at 1, 5 and 30 min. post-injection. […] The percentage of the injected dose (% ID) in the liver was determined for each time point and the integrated area under the mean liver % ID time curve (AUC) was calculated.
For the 5 min. time period, the 1/T1 proton relaxation rate of the excised liver was measured at 20MHz and 37° C. as described above. Higher 1/T1 values are associated with greater MRI signal intensity on T1 -weighted images and are due to greater liver uptake of the agent and/or greater relaxivity in the microenvironments of the liver.

[3] = Rat liver uptake of 153Gd-labeled chelates; format: in vivo, Sprague Dawley rat; conditions: 50 μmol/kg tail vein
Method: Un-anesthetized adult male Sprague Dawley rats (200-300 g) were injected in the tail vein with 50 μmol/kg of gadolinium chelate labeled with ^153 Gd. Rats (approx. 3 per time period) were euthanized by cervical dislocation (while anesthetized by CO2) at 1, 5 and 30 min. post-injection. The liver was analyzed for ^153 Gd concentration using a gamma counter. The percentage of the injected dose (% ID) in the liver was determined for each time point and the integrated area under the mean liver % ID time curve (AUC) was calculated.

[4] = Biliary excretion in monkeys; conditions: monkey, n = 2, 50 μmol/kg iv bolus
Method: Two adult male cynomolgus monkeys used for scintigraphic imaging were injected on different days with iv bolus of 50 μmol/kg of the chelates labeled with ^153 Gd (approximately 40 μCi/kg). Following completion of the imaging study, the animals were placed in metabolic cages and their total urine void and excreted feces were measured using a gamma counter at 24 and 48 hr post compound administration.

[5] = in vivo
Method: Anesthetized (pentobarbital, 35 mg/kg, ip.) adult rabbits (2.5-4 kg) were administered 50 μmol/kg of a ^153 Gd-labeled chelate (approximately30 μCi/kg) via a cannulated marginal ear vein. Rabbits (1 per compound) were positioned supine under a gamma camera set with a photo peak energy of 100 keV +/- 20% and equipped with a low energy parallel hole collimator. Immediately after chelate administration, dynamic planar whole body scintigraphy was performed every five minutes for at least one hour. Images were acquired in a 64×64 matrix, and region of interest (ROI) analysis was performed using the Image 1.52 software package (National Institutes of Health). Percent injected does (% ID) in the liver at 5 min. intervals was calculated by dividing the counts in the liver ROI by the total counts in the body.

[6] = Liver and bile specificity relative to structurally similar contrast agents (summary statement); format: in vivo; conditions: relative to structurally similar contrast agents previously disclosed
From the text: Thus, this invention provides a method for tissue-specific contrast enhancement of MR images of mammalian organs and tissues. In particular, the method allows for contrast enhancement of MR images of the hepatobiliary system. […] MS-264 can also be used for tissue-specific imaging of tumors and the blood pool.

Compound	R1 in liver cytosol (relaxivity) [1] [s⁻¹ mM⁻¹]	1/T1 of excised rat liver 5 min. post-inj. [2] [s⁻¹]	Area under the % inj. dose in rat liver vs time curve (AUC) from 0 to 30 min [3]	% of recovered activity in feces (biliary excretion) of monkeys over 48 hr [4] [%]	Area under the % inj. dose in rabbit liver vs time curve (AUC) from 0 to 30 min [5]	liver and bile specificity [6]
Cc1ccc(CC(CN(CCN(CC(=O)O)CC(=O)O)CC(=O)O)N(CC(=O)O)CC(=O)O)c(C)c1 (centres unmarked) [1-(2,4-di-Me-benzyl)]	15.3	10.2 ± 0.6	404			
O=C(O)CN(CCN(CC(=O)O)CC(Cc1ccccc1)N(CC(=O)O)CC(=O)O)CC(=O)O (centres unmarked) [1-(benzyl)]	11.7		213			
CCOc1ccc(C[C@@H](CN(CCN(CC(=O)O)CC(=O)O)CC(=O)O)N(CC(=O)O)CC(=O)O)cc1 [1-(p-ethoxybenzyl)]	14.4	10.1 ± 1.5	408	35 ± 3	480	
CCc1ccc(CC(CN(CCN(CC(=O)O)CC(=O)O)CC(=O)O)N(CC(=O)O)CC(=O)O)cc1 (centres unmarked) [1-(p-ethylbenzyl)]	16.4	12.3 ± 0.9	469	48 ± 10	553	
CC(C)c1ccc(CC(CN(CCN(CC(=O)O)CC(=O)O)CC(=O)O)N(CC(=O)O)CC(=O)O)cc1 (centres unmarked) [1-(p-isopropylbenzyl)]	18.7	10.9 ± 1.2	400		910	
O=C(O)CN(CCN(CC(=O)O)CC(CCc1ccccc1)N(CC(=O)O)CC(=O)O)CC(=O)O (centres unmarked) [1-(phenylethyl)]	13.6					
O=C(O)CN(CCN(CC(=O)O)CC(=O)O)CCN(CC(=O)O)C(COCc1ccccc1)C(=O)O (centres unmarked) [BOPTA]	11.3					
diethylenetriamine pentaacetic acid [DTPA]	7.1	4.64 ± 0.16	35			
gadolinium(III)-1-(p-n-butylbenzyl)diethylenetriamine pentaacetate dimeglumine salt [MS-264]	23.8	14.6 ± 0.2	491		1120	surprisingly superior liver and bile specificity
